A short description of one data set: Solubility. The following applies: aqueous solubility.
Data set [1] is described as follows: Stability in 1 M NaOH at room temperature, HPLC analysis.
Data set [2] deals with human breast cancer MDA-MB-468 cells. Nature of the data set: Western blotting of MDA-MB-468 cells treated with marinopyrrole derivatives (Mcl-1, Bim, caspase 3). Format: cell-based. The following applies: 10 μM for 16 h. The method, then: The cells were then processed for western blotting according to a previously described methods (Balasis M E et al. Clin. Cancer Res. 2011, 17, 2852-2862). […] However, none of the cyclic marinopyrroles were active in intact cells.
(§1) ELISAs were performed using a modified version of a previously described procedure (Doi K et al. J. Biol. Chem. 2012, 287, 10224-10235). Briefly, 40 nM of biotinylated Bim BH3 peptide (Biomatik) in SuperBlock blocking buffer (Pierce) was incubated in high-binding capacity streptavidin-coated plates (Pierce) for 2 h. Compounds were diluted in 120 μl of PBS containing 10 nM of GST-Mcl-1 or GST-Bcl-xL in 1.5 mL tubes for 15 min. Wells were washed with wash buffer (PBS containing 0.05% Tween-20) and then 100 μL of the compound/GST-protein mixture was transferred to the wells. The plates were incubated for 2 h, and then the wells were washed with wash buffer. HRP-conjugated anti-GST antibody (Bethyl Laboratories) was diluted 1:2000 in SuperBlock and 100 μL was transferred to each well. The plate was incubated for 1 h, and then the wells were washed with wash buffer followed by PBS. 100 μL of SureBlue TMB Microwell Peroxidase Substrate (VWR) was added to each well and plates were developed for 5-10 min. 100 μL of 1 N HCl was added to each well to stop the reaction and absorbance was read at 450 nm using a μQuant plate reader (Bio-Tek).

Data set [3] in a line: pKa and log p calculated using ChemAxon Software Version 5.12.3. The following applies: difference to phenol pKa […].
Method: Both pKa and log p values were calculated using ChemAxon Software Version 5.12.3 (Dixon S L and Jurs P C. J. Comp. Chem. 1993, 14, 1460-1467; Csizmadia F et al. J. Pharm. Sci. 1997, 86, 865-871).
Another data set addresses Mcl-1/Bim (Homo sapiens, UniProt Q07820). Put plainly: Mcl-1/Bim ELISA (GST-Mcl-1 binding to biotinylated Bim BH3 peptide). The following applies: for selectivity for Mcl-1 over Bcl-xL (Mcl-1/Bim over Bcl-xL/Bim): ratio of ELISA IC50 values. The method, then:
as §1
(§2) ELISAs were performed using a similar procedure as previously described (Doi K, et al. J. Biol. Chem. 2012, 287, 10224-10235). Briefly, 40 nM of biotinylated Bim BH3 peptide (Biomatik) in SuperBlock blocking buffer (Pierce) was incubated in high-binding capacity streptavidin-coated plates (Pierce) for 2 h. Compounds were diluted in 120 μl of PBS containing 10 nM of GST-Mcl-1 or GST-Bcl-xL in 1.5 mL tubes for 15 min. Wells were washed with wash buffer (PBS containing 0.05% Tween-20) and then 100 μL of the compound/GST-protein mixture was transferred to the wells. The plates were incubated for 2 h, and then wells were washed with wash buffer. HRP-conjugated anti-GST antibody (Bethyl Laboratories) was diluted 1:2000 in SuperBlock and 100 μL was transferred to each well. The plate was incubated for 1 h, and then wells were washed with wash buffer followed by PBS. 100 μL of SureBlue TMB Microwell Peroxidase Substrate (VWR) was added to each well and plates were developed for 5-10 min. 100 μL of 1 N HCl was added to each well to stop the reaction and absorbance was read at 450 nm using μQuant plate reader (Bio-Tek).

A further data set concerns the target Bcl-xL/Bim (Homo sapiens, UniProt Q07817). Nature of the data set: Bcl-xL/Bim ELISA (GST-Bcl-xL binding to biotinylated Bim BH3 peptide). The method, then:
as §1, §2

The target in data set [4] is T1, Mcl-1 (Homo sapiens, UniProt Q07820). Nature of the data set: 15N-HSQC NMR chemical shift perturbation with docking. The following applies: HSQC chemical shift changes. Details: MBP (cleaved yes); made in house; host or cells: E. coli BL21(DE3) Codon+. Format: binding. As to the method:
^15N-HSQC spectra were recorded on ^15N-labelled Mcl-1 at 0.1 mM prepared in 50 mM potassium phosphate solution at pH 6.5, 50 mM NaCl and 1 mM DTT. Titrations up to 100 μM of 1-21 and 1-18 compounds were performed. NMR spectra were acquired at 25° C. on an Inova 600 MHz spectrometer equipped with a cryoprobe and analyzed in CCPNMR (Vranken W F, et al. Proteins. 2005, 59, 687-696).
NMR-guided docking of 1-21 into the X-ray crystal structure of Mcl-1 (PDB ID: 3KJ0) was performed using Glide (Maestro, Schrodinger) (Friesner R A et al. J. Med. Chem. 2004, 47, 1739-1749; Friesner R A, et al. J. Med. Chem. 2006, 49, 6177-6196; Halgren T A, et al. J. Med. Chem. 2004, 47, 1750-1759; Gavathiotis E, et al. Nat. Chem. Biol. 2012, 8, 639-645). The lowest-energy docking pose is consistent with the observed NMR-chemical shift perturbation data. Pymol is used for preparing the highlighted poses.
Structural characterization of I-20 and II-4 was performed using NMR. HSQC spectra were collected at different ratios of compound:Mcl-1. […] The residues that undergo chemical shift changes upon compounds' binding onto the structure of Mcl-1 and the compounds' binding location were mapped (FIG. 6B). An induced fit molecular docking approach guided by the NMR chemical shifts was used to determine the structural models of the compounds bound to Mcl-1 using Glide software (Schrodinger; FIG. 6C). […]
Target sequence in this assay (Q07820 172-327): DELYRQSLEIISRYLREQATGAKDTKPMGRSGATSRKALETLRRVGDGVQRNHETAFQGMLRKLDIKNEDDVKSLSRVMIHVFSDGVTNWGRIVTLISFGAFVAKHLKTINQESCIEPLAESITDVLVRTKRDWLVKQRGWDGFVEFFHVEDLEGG

For data set [5], the target named is T1, Mcl-1. Put plainly: Fluorescence-quenching (FQ) assay based on intrinsic Trp fluorescence of Mcl-1. Format: binding. The conditions noted are these: for Kd: binding isotherms, read-out: Kd (binding constant). The text has this: To investigate direct binding of compounds to Mcl-1, a fluorescence-quenching (FQ) assay based on the intrinsic Trp fluorescence of Mcl-1 was established.
Target sequence in this assay (Q07820 whole entry): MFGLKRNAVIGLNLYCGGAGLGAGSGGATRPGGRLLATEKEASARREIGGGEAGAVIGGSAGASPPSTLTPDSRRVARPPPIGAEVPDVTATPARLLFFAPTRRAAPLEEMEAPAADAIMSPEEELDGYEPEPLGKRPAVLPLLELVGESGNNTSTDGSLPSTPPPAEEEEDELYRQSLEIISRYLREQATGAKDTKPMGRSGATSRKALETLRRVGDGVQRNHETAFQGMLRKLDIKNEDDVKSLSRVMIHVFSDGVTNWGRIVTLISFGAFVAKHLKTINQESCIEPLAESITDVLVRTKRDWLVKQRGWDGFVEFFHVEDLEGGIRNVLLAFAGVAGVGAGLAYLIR

The mark [6] stands for this setting: Table 2-A, n ≥ 3, read-out: Mcl-1/Bim IC50 (average ± SEM).
Setting [7] is: Table 3-A structure I, Mcl-1 at 10 nM, n ≥ 3, read-out: Mcl-1-Bim IC50 (average ± SEM).
Where [8] appears, read: read-out: IC50 to inhibit the binding of Mcl-1 to Bim.
[9] abbreviates: Table 2-A, n ≥ 3, read-out: Bcl-xL/Bim IC50 (average ± SEM).
The mark [10] stands for this setting: Table 3-A structure I, Bcl-xL at 10 nM, n ≥ 3, read-out: Bcl-xL-Bim IC50 (average ± SEM).

Structures are written as SMILES. “Also recorded” adds a separate entry of the source. Read-outs that look alike come from different tables or passages of the source. Bounds are passed on as bounds.

Sequence of Bcl-xL/Bim (Q07817 whole entry): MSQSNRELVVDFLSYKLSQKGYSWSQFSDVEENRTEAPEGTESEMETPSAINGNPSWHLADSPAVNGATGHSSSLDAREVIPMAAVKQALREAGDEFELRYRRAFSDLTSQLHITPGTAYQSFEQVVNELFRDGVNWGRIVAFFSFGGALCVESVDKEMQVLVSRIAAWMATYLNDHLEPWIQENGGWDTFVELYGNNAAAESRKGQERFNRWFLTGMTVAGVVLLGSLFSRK
Sequence of Mcl-1/Bim (Q07820 whole entry): as the sequence (Q07820 whole entry) above

For the compound `O=C(c1ccccc1O)c1[nH]c(Cl)c(Cl)c1-n1c(C(=O)c2ccccc2O)cc(Cl)c1Cl` (racemic) [(±)-1, (±)-marinopyrrole A, reference compound], the solubility in words entry in the data set “Solubility” was “poor solubility”. Moreover, the stability in words entry in data set [1] (1 to 48 hours) was “highly stable”. Moreover, the remained intact in data set [1] (after 48 hours) is on record as 76%. Moreover, in data set [2], the “effect on levels of Mcl-1 and Bim and cleavage of caspase 3” value (“effect on levels” for short) was “able to decrease Mcl-1 and Bim and to cleave caspas 3”. The “pKa values lower than that of phenol” value in data set [3] is 1.6-2.2 log units. Further, the IC50 at Mcl-1/Bim (Table 1, Mcl-1 at 10 nM, n ≥ 3, read-out: Mcl-1-Bim IC50 (average ± SEM)) was 8.9 ± 1 µM; on Mcl-1/Bim (setting [6]), 8.9 ± 1 µM; on Mcl-1/Bim (Table 2-B, n ≥ 3, read-out: Mcl-1/Bim IC50 (average ± SEM)) it was 8.9 ± 1 µM; at Mcl-1/Bim (setting [7]), 8.9 ± 1 µM; on Mcl-1/Bim (setting [8]) it was 8.9 µM; on Bcl-xL/Bim (Table 1, Bcl-xL at 10 nM, n ≥ 3, read-out: Bcl-xL-Bim IC50 (average ± SEM)), 16.4 ± 3.3 µM. The IC50 on Bcl-xL/Bim (setting [9]) turned out to be 16.4 ± 3.3 µM; on Bcl-xL/Bim (Table 2-B, n ≥ 3 unless specified, read-out: Bcl-xL/Bim IC50 (average ± SEM)), 16.4 ± 3.3 µM; at Bcl-xL/Bim (setting [10]), 16.4 ± 3.3 µM; on Bcl-xL/Bim (read-out: IC50 to inhibit Bcl-xL/Bim binding) it was 16.4 µM. In addition, the “selectivity for Mcl-1 over Bcl-xL (Mcl-1/Bim over Bcl-xL/Bim)” value on Mcl-1/Bim is on record as 1.8 fold; on Mcl-1/Bim (listed as marinopyrrole A) it was “two fold”.

For the compound `O=C(O)Cn1cc(-c2cc(O)c(C(=O)c3[nH]c(Cl)c(Cl)c3-n3c(C(=O)c4cc(Cl)c(-c5cn(CC(=O)O)nn5)cc4O)cc(Cl)c3Cl)cc2Cl)nn1` [Compound 1-19, 2,2′-(4,4′-((4,4′,5,5′-Tetrachloro-1′H-1,3′-bipyrrole-2,2′-dicarbonyl)bis(2-chloro-5-hydroxy-4,1-phenylene))bis(1H-1,2,3-triazole-4,1-diyl))diacetic acid], on Mcl-1 [4] (listed as II-4), the “binding to Mcl-1 by NMR” value is listed as “binding to the BH3 pocket of Mcl-1; also recorded: confirmed binding to Mcl-1”. Besides, the IC50 at Mcl-1/Bim (setting [6]) is 5.2 ± 0.8 µM; on Mcl-1/Bim (Table 3-B structure II, n ≥ 3, read-out: Mcl-1-Bim IC50 (average ± SEM)), 5.2 ± 0.8 µM; at Mcl-1/Bim (setting [8]), 5.2 µM; at Bcl-xL/Bim (setting [9]), more than 50 µM; on Bcl-xL/Bim (Table 3-B structure II, n ≥ 3, read-out: Bcl-xL-Bim IC50 (average ± SEM)) it was more than 50 µM. Besides, the “selectivity for Mcl-1 over Bcl-xL (Mcl-1/Bim over Bcl-xL/Bim)” value on Mcl-1/Bim is recorded as 9.6 fold. At Mcl-1 [5], the “direct binding to Mcl-1 by fluorescence quenching” value is given as “directly bind to Mcl-1”. The Kd at Mcl-1 [5] was 2.5 µM. Further, the “activity against Bcl-xL/Bim in words” value on Bcl-xL/Bim is “not active”.

In the case of `O=C(O)c1ccc(C(=O)c2[nH]c(Cl)c(Cl)c2-n2c(C(=O)c3ccc(C(=O)O)cc3O)cc(Cl)c2Cl)c(O)c1` [Compound I-18, 4,4′-(4,4′,5,5′-Tetrachloro-1′H-[1,3′-bipyrrole]-2,2′-dicarbonyl)bis(3-hydroxybenzoic acid)], the solubility in words entry in the data set “Solubility” was “improvement in aqueous solubility”. Besides, the “effect on levels” value in data set [2] is “did not decrease Mcl-1 and Bim, and resulted in little caspase 3 cleavage”. Besides, the figures for the IC50 at Mcl-1/Bim (setting [7]) and on Bcl-xL/Bim (setting [10]) were 61.4 ± 7.6 µM and more than 100 µM, respectively. Moreover, the “activity against Mcl-1/Bim in words” value at Mcl-1/Bim (listed as 7a) was “lower activity than 1; also recorded: less active”. The “activity against Bcl-xL/Bim in words” value at Bcl-xL/Bim (listed as 7a) is “little activity; also recorded: less active”.

Consider `O=C(c1ccc(P(=O)(O)O)cc1O)c1[nH]c(Cl)c(Cl)c1-n1c(C(=O)c2ccc(P(=O)(O)O)cc2O)cc(Cl)c1Cl` [Compound I-20, ((4,4′,5,5′-Tetrachloro-1′H-[1,3′-bipyrrole]-2,2′-dicarbonyl)bis(3-hydroxy-4,1-phenylene))diphosphonic acid], for which, in the data set “Solubility”, the solubility in words result is “improvement in aqueous solubility”. Besides, on Mcl-1 [4], the “binding to Mcl-1 by NMR” value is given as “binding to the BH3 pocket of Mcl-1; also recorded: confirmed binding to Mcl-1”. Moreover, the “effect on levels” value in data set [2] is “little effect on Mcl-1, Bim or caspase 3”. Besides, the IC50 at Mcl-1/Bim (setting [7]) turned out to be 10.9 ± 3.1 µM. Further, on Mcl-1/Bim (listed as 8a), the “activity against Mcl-1/Bim in words” value is listed as “slightly less potent than 1; also recorded: less active”. On Mcl-1 [5], the “direct binding to Mcl-1 by fluorescence quenching” value is “directly bind to Mcl-1” and the dissociation constant (Kd) amounted to 3.5 µM. In addition, the “activity against Bcl-xL/Bim in words” value at Bcl-xL/Bim was “less active”. In addition, the IC50 at Bcl-xL/Bim (setting [10]) stood at 27.3 ± 7.2 µM.

The values above are taken from patent US10358454B2, “Marinopyrrole derivatives and methods of making and using same” (H. LEE MOFFITT CANCER CENTER AND RESEARCH INSTITUTE, INC., priority 2014, dated 2019).
